Assay results taken from article PMC7403668, “Intellectual disability‐associated gene ftsj1 is responsible for 2′‐O‐methylation of specific tRNAs” (EMBO Reports, 2020).

Key:
FTSJ1-WDR6 = molecular target: T1, FTSJ1-WDR6 (Homo sapiens, UniProt Q9UET6); test: tRNA […]'-O-methyl transfer, UPLC-MS/MS of Gm34; assay type: biochemical; conditions: methyl donor, 100 μM SAM; co-substrate 5 μM tRNAPhe(GAA) from ftsj1 KO cells or with m1G37; 10 mM MgCl2, pH 7.5, 37°C, 2 h
T1 construct: mixture of FTSJ1 (C-terminal His6, High Five cells) and WDR6 (N-terminal GST, Sf9 cells), purified separately; binary complex; with tRNA (34-2'-O)-methyltransferase regulator WDR6
T1 sequence (Q9UET6 1-327 isoform Q9UET6-2): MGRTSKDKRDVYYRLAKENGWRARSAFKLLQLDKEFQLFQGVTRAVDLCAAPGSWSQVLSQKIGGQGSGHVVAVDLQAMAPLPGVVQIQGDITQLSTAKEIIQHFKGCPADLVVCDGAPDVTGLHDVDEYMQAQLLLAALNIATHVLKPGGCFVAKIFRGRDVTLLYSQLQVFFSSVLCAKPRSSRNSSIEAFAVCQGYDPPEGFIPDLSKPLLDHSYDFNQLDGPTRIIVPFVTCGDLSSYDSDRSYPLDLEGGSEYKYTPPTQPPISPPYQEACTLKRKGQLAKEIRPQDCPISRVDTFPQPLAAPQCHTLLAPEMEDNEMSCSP
T1 sequence (Q9NNW5 1-1121 partner): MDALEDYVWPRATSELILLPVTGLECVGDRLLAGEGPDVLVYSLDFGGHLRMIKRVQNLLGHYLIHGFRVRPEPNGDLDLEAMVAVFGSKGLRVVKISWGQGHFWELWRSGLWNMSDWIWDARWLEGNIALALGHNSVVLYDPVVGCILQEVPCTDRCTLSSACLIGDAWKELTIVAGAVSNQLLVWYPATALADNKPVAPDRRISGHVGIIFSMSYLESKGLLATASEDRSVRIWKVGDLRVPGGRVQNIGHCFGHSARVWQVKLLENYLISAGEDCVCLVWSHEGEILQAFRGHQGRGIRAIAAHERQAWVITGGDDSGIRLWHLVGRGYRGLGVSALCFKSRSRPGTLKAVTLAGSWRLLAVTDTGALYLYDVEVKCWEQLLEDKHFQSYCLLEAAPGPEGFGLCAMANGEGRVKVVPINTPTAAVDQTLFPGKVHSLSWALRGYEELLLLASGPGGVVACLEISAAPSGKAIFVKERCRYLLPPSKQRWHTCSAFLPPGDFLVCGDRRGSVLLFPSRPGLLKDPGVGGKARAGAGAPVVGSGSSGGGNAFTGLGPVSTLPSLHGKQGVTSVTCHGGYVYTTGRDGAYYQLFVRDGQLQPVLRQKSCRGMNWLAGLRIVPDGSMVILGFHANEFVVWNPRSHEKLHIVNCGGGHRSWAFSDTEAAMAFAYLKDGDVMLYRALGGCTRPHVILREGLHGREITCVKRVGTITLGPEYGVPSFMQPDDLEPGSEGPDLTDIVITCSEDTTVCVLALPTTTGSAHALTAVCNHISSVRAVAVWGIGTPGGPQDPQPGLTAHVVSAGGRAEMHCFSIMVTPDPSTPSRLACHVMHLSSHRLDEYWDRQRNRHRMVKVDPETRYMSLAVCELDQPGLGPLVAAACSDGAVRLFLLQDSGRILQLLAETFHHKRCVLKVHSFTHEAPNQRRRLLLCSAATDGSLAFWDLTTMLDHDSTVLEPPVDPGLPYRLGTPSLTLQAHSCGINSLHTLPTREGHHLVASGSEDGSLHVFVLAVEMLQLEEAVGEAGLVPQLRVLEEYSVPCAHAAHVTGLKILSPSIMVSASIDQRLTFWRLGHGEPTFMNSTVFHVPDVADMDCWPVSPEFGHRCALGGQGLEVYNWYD

FTSJ1 (FTSJ1-His) = molecular target: T2, FTSJ1 (FTSJ1-His) (Homo sapiens, UniProt Q9UET6); test: isothermal titration calorimetry (iTC200), one-site model; assay type: binding
T2 construct: full-length, C-terminal His6-tag kept, baculovirus/High Five insect cells; cDNA from HeLa RNA; 327 residues as printed
T2 sequence (Q9UET6 1-327 isoform Q9UET6-2): T1 sequence (Q9UET6 1-327 isoform Q9UET6-2)

- Kd (FTSJ1 (FTSJ1-His)): ~4 µM
Structure (SMILES): C[S+](CC[C@H](N)C(=O)O)C[C@H]1O[C@@H](n2cnc3c(N)ncnc32)[C@H](O)[C@@H]1O (some centres unmarked) [SAM]
- tRNA 2'-O-methyl transfer, UPLC-MS/MS of Gm34 (FTSJ1-WDR6): robust Gm formation was detected after incubation with FTSJ1‐WDR6
